In data set [1] the test system is pig tracheal smooth muscles. The data set is described as follows: Dilating action on contraction of tracheal smooth muscles (high K+ contraction, Magnus tube). The settings on record: Sus scrofa, 2 h; K+ contraction (72.7 mM); test substance final concentration 10 μM; two hours after addition; tension before addition = 100%; read-out: Relative Contraction Force (%). The text has this:
With the use of pig tracheal muscles, the action of the compounds of the present invention on contraction of tracheal muscles has been investigated. The method refers to “Smooth Muscle Manual” (published by Bun'eido Publishing Co.), pp. 125-137. The trachea cartilage mucous membrane and submucous tissue of a pig trachea were removed to prepare a specimen of tracheal smooth muscles having a major diameter of about 10 mm and a minor diameter of about 1.5 mm. This specimen was suspended in a Magnus tube which was aerated with a mixed gas of 95% of oxygen and 5% of carbon dioxide and contained nutrient solution at 37° C. and a load of 0.8 g was applied to this specimen, and after the tension of the specimen was stabilized, the nutrient solution was replaced with a high concentration K^+ solution (72.7 mM) to provoke K^+ contraction. The procedure of replacing the solution in the Magnus tube with the nutrient solution to wash the solution and provoking K^+ contraction with the high concentration K^+ solution was repeated again until the contraction force became constant. When the tension of the K^+ contraction became constant, each of the compounds described in Table 19 (the structural formula of the Comparative Example being described in the right side of the compound of the above described Example 180) was added to the high concentration K^+ solution as the test substance to measure the change in tension. The test substance was dissolved in dimethyl sulfoxide at a predetermined concentration and added to the high concentration K^+ solution in such a manner that the final concentration came to 10 μM. The trachea cartilage mucous membrane and submucous tissue of a pig trachea were removed to prepare a specimen of tracheal smooth muscles having a major diameter of about 10 mm and a minor diameter of about 1.5 mm. This specimen was suspended in a Magnus tube which was aerated with a mixed gas of 95% of oxygen and 5% of carbon dioxide and contained nutrient solution at 37° C. and a load of 0.8 g was applied to this specimen, and after the tension of the specimen was stabilized, the nutrient solution was replaced with a high concentration K+ solution (72.7 mM) to provoke K+ contraction. The procedure of replacing the solution in the Magnus tube with the nutrient solution to wash the solution and provoking K+ contraction with the high concentration K+ solution was repeated again until the contraction force became constant. When the tension of the K+ contraction became constant, each of the compounds described in Table 19 (the structural formula of the Comparative Example being described in the right side of the compound of the above described Example 180) was added to the high concentration K+ solution as the test substance to measure the change in tension. The test substance was dissolved in dimethyl sulfoxide at a predetermined concentration and added to the high concentration K+ solution in such a manner that the final concentration came to […]. Further, the final concentration of dimethyl sulfoxide added was made 0.3% or less. The change in tension was led to a strain pressure amplifier (“AP-621G3”, manufactured by Nippon Koden Kogyo) through a FD pickup transducer (“TB-611T”, manufactured by Nippon Koden Kogyo) and recorded on a recorder (“R-64V”, manufactured by Rika Electric). When the tension before replacement with the high concentration K+ solution was regarded as 0% and the last tension which was generated by the high concentration K+ solution before the addition of a test substance was regarded as 100%, the contraction force of the tracheal smooth muscle two hours after addition of a test substance was shown as relative percentage. […]

For data set [2], the system named is actively sensitized guinea pigs. The data set is described as follows: Inhibition of immediate (IAR) and late (LAR) asthmatic response, specific airway resistance (sRaw). Type of data set: in vivo, guinea pig. The settings on record: orally 10 mg/kg one hour before OVA challenge. As to the method: It is reported [Pepys, J. and Hutchcroft, B. J., Bronchial provocation tests in etiologic diagnosis and Analysis of asthma, Am. Rev. Respir. Dis., 112, 829-859 (1975)] that when asthmatic patients are allowed to inhale an antigen, immediate asthmatic response (hereinafter referred to as “IAR”) whose peak is 15 to 30 minutes after inhalation is provoked and recovery from this response is within two hours; however, in 60% of the asthmatic patients late asthmatic response (hereinafter referred to as “LAR”) appears 4 to 12 hours after the inhalation of the antigen. […] On the other hand, it is known that when the guinea pigs actively sensitized with an antigen are allowed to inhale the antigen again, biphasic airway responses are caused. Accordingly, as the animal model line of IAR and LAR which are recognized in the above described asthmatic patients, the asthmatic model using guinea pigs is widely used in the evaluation of drugs for asthma and the like. […]
The specific airway resistance (hereinafter referred to as “sRaw”) was measured, 1 minute, 10 minutes and 30 minutes after challenge and furthermore, 1 hour, 2 hours, 3 hours, 4 hours, 5 hours, 6 hours, 7 hours, 8 hours and 24 hours, each time for the duration of 1 minute with the use of airway resistance measuring equipment (“Pulmos-1”, M.I.P.S., Japan). […]

Data set [3] shares this test system. The data set is described as follows: Number of inflammatory cells in bronchoalveolar lavage fluid after antigen challenge. The settings on record: orally 10 mg/kg one hour before OVA challenge. Type of data set: in vivo, guinea pig. The procedure: It is reported [Pepys, J. and Hutchcroft, B. J., Bronchial provocation tests in etiologic diagnosis and Analysis of asthma, Am. Rev. Respir. Dis., 112, 829-859 (1975)] that when asthmatic patients are allowed to inhale an antigen, immediate asthmatic response (hereinafter referred to as “IAR”) whose peak is 15 to 30 minutes after inhalation is provoked and recovery from this response is within two hours; however, in 60% of the asthmatic patients late asthmatic response (hereinafter referred to as “LAR”) appears 4 to 12 hours after the inhalation of the antigen. […] On the other hand, it is known that when the guinea pigs actively sensitized with an antigen are allowed to inhale the antigen again, biphasic airway responses are caused. Accordingly, as the animal model line of IAR and LAR which are recognized in the above described asthmatic patients, the asthmatic model using guinea pigs is widely used in the evaluation of drugs for asthma and the like. Furthermore, it is known that in the IAR and LAR model of guinea pigs, when actively sensitized guinea pigs are exposed to an antigen, infiltration of inflammatory cells into the airway occurs together with the biphasic airway contraction to cause various inflammatory disorders to airway tissues thereby. Therefore, the number of inflammatory cells in the bronchoalveolar lavage fluid is widely used as the index for the infiltration of inflammatory cells into the airway. Each of the above described actions in the IAR and LAR model of guinea pigs was examined with the compounds of the present invention.
Guinea pigs were allowed to inhale a 1% ovalbumin (“OVA”, sigma-Aldrich Co., U.S.A.) physiological saline for 10 minutes daily continuously for 8 days using of an ultrasonic nebulizer (“NE-U12”, Omron, Japan).
One week after the final sensitization, the guinea pigs were allowed to inhale a 2% “OVA” physiological saline for 5 minutes using of the nebulizer. Twenty-four hours and one hour before challenge, the guinea pigs were dosed with metyrapone (10 mg/kg, Sigma-Aldrich Co., U.S.A.) intravenously, and dosed with pyrilamine (10 mg/kg, Sigma-Aldrich Co., U.S.A.) intraperitoneally 30 minutes before challenge.
Each of the test substances (Compounds of Examples 1 and 4) was formed into a suspension with a 0.5% carboxymethyl cellulose sodium salt (hereinafter referred to as “CMC-Na”) solution at a concentration of 2 mg/mL. One hour before challenge, the guinea pigs were orally dosed with the suspension of the test substance with such a dose so as to be 10 mg/kg. For the control group the medium (a 0.5% CMC-Na solution) was used.
Twenty-three to twenty-four hours after the antigen challenge, the abdominal aorta of the guinea pigs was cut under intraperitoneal anesthesia with “Nembutal” (50 mg/kg) to remove blood and the chest was opened. A tube was inserted in the bronchus and fixed thereto and through this tube, 5 mL (37° C.) of a physiological saline was injected and sucked therethrough; this procedure was repeated twice (10 mL in total) and the recovered fluid was regarded as the bronchoalveolar lavage fluid (hereinafter referred to as “BALF”). BALF was centrifuged at 1,100 rmp at 4° C. for 10 minutes to obtain a precipitate (a pellet). This pellet was suspended in 1 mL of a physiological saline and a Turkliquid was added thereto and the number of leukocytes per μL was counted with a leukocyte counter plate. Centrifugation was repeated under the above described conditions and rabbit serum was added to the obtained pellet to prepare a smear preparation. After drying, the preparation was subjected to the May Grunwald-Giemsa stain. The number of leukocytes was counted by a microscope and the ratio to the total number of cells of neutrophils, eosinophils, macrophages and lymphocytes was obtained and the number of cells per μL was calculated on the basis of this ratio.
The obtained test results were shown by mean values and standard deviations and the student's t-test was carried out. […]

The next data set deals with Sprague-Dawley line rats. The data set is described as follows: Toxicity study of two-week repeated-dose oral administration with rats. The data set is classed as in vivo. Conditions: male, oral, 0, 125 and 500 mg/kg/day repeatedly for two weeks. The procedure:
In order to study the toxicity by repeated-dose administration of compounds, the compounds were dosed orally to Sprague-Dawley line rats (three male rats per group) with 0, 125 and 500 mg/kg/day (a 0.5 w/v % CMC-Na solution) repeatedly for two weeks.

Data set [4] relates to actively sensitized guinea pigs. The data set is described as follows: Antigen induced airway hypersensitivity, airway reactivity to acetylcholine (PC100ACh). Type of data set: in vivo, guinea pig. Conditions: orally 10 mg/kg 16 hours and 2 hours before the OVA challenge; 22 to 26 hours after challenge. From the text: Bronchial asthma is a disease characterized by bronchial contraction, airway hypersensitivity and infiltration of inflammatory cells into the airway. Airway hypersensitivity is a condition in which the airway sensitively produces a contraction response to various slight stimuli. Particularly, airway hypersensitivity is considered to be a common feature among patients suffering from allergic bronchial asthma. This experimental system in which actively sensitized guinea pigs are used is useful as a airway hypersensitivity model. […]
The specific airway resistance (sRaw) of wake guinea pigs was measured by the double flow plethysmography with the use of airway resistance measuring equipment (“Pulmos-1”, M.I.P.S., Japan).
[…], from twenty-two to twenty-six hours after the antigen challenge, the guinea pigs were placed in an animal chamber and allowed to inhale a physiological saline and acetylcholine (hereinafter referred to as “ACh”) solutions of 0.0625, 0.125, 0.25, 0.5, 1 and 2 mg/mL , respectively, in the order named, each for one minute until sRaw came to the value at least twice the baseline sRaw (sRaw after the inhalation of the physiological saline). The ACh concentration (hereinafter referred to as “PC100ACh”) necessary for 100% increase in the baseline sRaw was calculated from the concentration of ACh and sRaw-resistance curve. […]

Setting [5] is: 24 hours after antigen challenge, average.

For the compound `CSc1ccc2c(c1)CC(=O)c1c(O)cc(O)cc1S2` [Example 1, 2-Methylthio-7,9-dihydroxy-10,11-dihydrodibenzo[b,f]thiepin-10-one], the activity at 10 µM in data set [1] is 0%. Also, the “IAR (% change in sRaw) inhibited by, compared to the control group” value in data set [2] was determined as 70%. In addition, the “LAR (AUC) inhibited by, compared to the control group” value in data set [2] (AUC from 4 hours to 8 hours) was 77%. In data set [3], the “change in number of eosinophils compared to the control group” value was “tendency”, the “change in number of lymphocytes compared to the control group” value is given as “tendency”, the “change in number of neutrophils compared to the control group” value is “tendency” and the “change in total number of cells compared to the control group” value is reported as “significant decrease”. In data set [3] (setting [5]), the “number of cells of eosinophils in bronchoalveolar lavage fluid” value was determined as 810 µL⁻¹, the “number of cells of lymphocytes in bronchoalveolar lavage fluid” value worked out at 21 µL⁻¹, the “number of cells of macrophages in bronchoalveolar lavage fluid” value is reported as 1,872 /μL and the “number of cells of neutrophils in bronchoalveolar lavage fluid” value is 1,072 /μL. Further, in data set [3] (setting [5]), the “total number of cells in bronchoalveolar lavage fluid” value was 3,775 /μL. The “Results (toxicity findings)” value with Sprague-Dawley line rats is “No abnormalities were recognized”.
On to `C[C@@H]1C[C@H]2[C@@H]3CCC4=CC(=O)C=C[C@]4(C)[C@@]3(F)[C@@H](O)C[C@]2(C)[C@@]1(O)C(=O)CO` [dexamethasone, Dexamethasone], for which, in data set [4], the PC100ACh came to 1.14 mg/mL.

The values are drawn from patent publication US6700013B2, “Tricyclic fused heterocycle compounds, process for preparing the same and use thereof” (Nippon Suisan Kaisha, Ltd., priority 1999, dated 2004).
